According to ChEMBL document CHEMBL4261573, “Synthesis and growth-inhibitory activities of imidazo[5,1-d]-1,2,3,5-tetrazine-8-carboxamides related to the anti-tumour drug temozolomide, with appended silicon, benzyl and heteromethyl groups at the 3-position” (Medchemcomm, 2018):

Assays:
[1] = test system: SNB-19; experiment: Growth inhibition of vehicle-transfected human SNB19 cells after 7 days by MTT assay; format: functional; details: SNB-19, 168 h
[2] = test system: U373 MG; experiment: Growth inhibition of vehicle-transfected human U373 cells after 7 days by MTT assay; format: functional, U-373MG ATCC; details: 168 h
[3] = test system: U373 MG; experiment: Growth inhibition of MGMT-transfected human U373 cells expressing MGMT after 7 days by MTT assay; format: functional, U-373MG ATCC; details: 168 h
[4] = test system: SNB-19; experiment: Growth inhibition of MGMT-transfected human SNB19 cells expressing MGMT after 7 days by MTT assay; format: functional; details: SNB-19, 168 h
[5] = Drug level in deuterated phosphate buffer/D2O at pD 7 treated with 3-(2-Trimethylsilylethoxy)methylimidazotetrazine measured every 15 mins for 12 to 18 hrs by 1H NMR method
[6] = Drug level in deuterated phosphate buffer/D2O at pD 7 treated with 3-Trimethylsilylmethylimidazotetrazine measured every 15 mins for 12 to 18 hrs by 1H NMR method

C[Si](C)(C)Cn1nnc2c(C(N)=O)ncn2c1=O
GI50 [1]: 28.4 µM | GI50 [2]: 45.6 µM | GI50 [3]: 250 µM | GI50 [4]: 302 µM

NC(=O)c1ncn2c(=O)n(Cc3ccco3)nnc12
GI50 [1]: > 50 µM | GI50 [2]: > 50 µM | GI50 [3]: > 50 µM | GI50 [4]: > 50 µM

NC(=O)c1nc[nH]c1N/N=N/CCc1ccccc1
GI50 [1]: > 50 µM | GI50 [2]: > 50 µM | GI50 [3]: > 50 µM | GI50 [4]: > 50 µM

C[C@@H](c1ccccc1)n1nnc2c(C(N)=O)ncn2c1=O
GI50 [1]: 34.7 µM | GI50 [2]: > 50 µM | GI50 [3]: > 50 µM | GI50 [4]: 45.3 µM

NC(=O)c1nc[nH]c1N/N=N/Cc1ccco1
GI50 [1]: > 50 µM | GI50 [2]: > 50 µM | GI50 [3]: > 50 µM | GI50 [4]: > 50 µM

C[Si](C)(C)CCOCn1nnc2c(C(N)=O)ncn2c1=O
GI50 [1]: 29.9 µM | GI50 [2]: 25.3 µM | GI50 [3]: 24.2 µM | GI50 [4]: 27.5 µM

Cc1noc(Cn2nnc3c(C(N)=O)ncn3c2=O)n1
GI50 [1]: > 50 µM | GI50 [2]: > 50 µM | GI50 [3]: > 50 µM | GI50 [4]: > 50 µM

NC(=O)c1ncn2c(=O)n(Cc3c[nH]nn3)nnc12
GI50 [1]: > 50 µM | GI50 [2]: > 50 µM | GI50 [3]: > 50 µM | GI50 [4]: > 50 µM

NC(=O)c1ncn2c(=O)n(Cc3ccccc3)nnc12
GI50 [1]: > 50 µM | GI50 [2]: > 50 µM | GI50 [3]: > 50 µM | GI50 [4]: > 50 µM

COc1ccc(Cn2nnc3c(C(N)=O)ncn3c2=O)cc1
GI50 [1]: > 50 µM | GI50 [2]: > 50 µM | GI50 [3]: > 50 µM | GI50 [4]: > 50 µM

NC(=O)c1ncn2c(=O)n(CCc3ccccc3)nnc12
GI50 [1]: > 50 µM | GI50 [2]: > 50 µM | GI50 [3]: > 50 µM | GI50 [4]: > 50 µM

NC(=O)c1ncn2c(=O)n(C(c3ccccc3)c3ccccc3)nnc12
GI50 [1]: > 50 µM | GI50 [2]: > 50 µM | GI50 [3]: > 50 µM | GI50 [4]: > 50 µM

COc1ccc([C@@H](C)n2nnc3c(C(N)=O)ncn3c2=O)cc1
GI50 [1]: > 50 µM | GI50 [2]: > 50 µM | GI50 [3]: > 50 µM | GI50 [4]: > 50 µM

NC(=O)c1nc[nH]c1N/N=N/Cc1ccccc1
GI50 [1]: > 50 µM | GI50 [2]: > 50 µM | GI50 [3]: > 50 µM | GI50 [4]: > 50 µM

NC(=O)c1nc[nH]c1N/N=N/Cc1ccsc1
GI50 [1]: > 50 µM | GI50 [2]: > 50 µM | GI50 [3]: > 50 µM | GI50 [4]: > 50 µM

CC[C@@H](c1ccccc1)n1nnc2c(C(N)=O)ncn2c1=O
GI50 [1]: > 50 µM | GI50 [2]: > 50 µM | GI50 [3]: > 50 µM | GI50 [4]: > 50 µM

C=O.O
Drug metabolism [5]: Metabolite_Detected

COP(=O)(O)O [PHOSPHORIC ACID MONOMETHYL ESTER]
Drug metabolism [6]: Metabolite_Detected

CC(c1ccc(Br)cc1)n1nnc2c(C(N)=O)ncn2c1=O (racemic)
GI50 [1]: > 50 µM | GI50 [2]: > 50 µM | GI50 [3]: > 50 µM | GI50 [4]: > 50 µM

C[Si](C)(C)CCO
Drug metabolism [5]: Metabolite_Detected

C[C@H](c1ccccc1)n1nnc2c(C(N)=O)ncn2c1=O
GI50 [1]: 32.7 µM | GI50 [2]: > 50 µM | GI50 [3]: > 50 µM | GI50 [4]: 49.7 µM

NC(=O)c1nc[nH]c1N/N=N/Cc1ccoc1
GI50 [1]: > 50 µM | GI50 [2]: > 50 µM | GI50 [3]: > 50 µM | GI50 [4]: > 50 µM

CO [METHYL ALCOHOL]
Drug metabolism [6]: Metabolite_Detected

NC(=O)c1nc[nH]c1N/N=N/Cc1cccs1
GI50 [1]: > 50 µM | GI50 [2]: > 50 µM | GI50 [3]: > 50 µM | GI50 [4]: > 50 µM

COc1ccccc1Cn1nnc2c(C(N)=O)ncn2c1=O
GI50 [1]: > 50 µM | GI50 [2]: > 50 µM | GI50 [3]: > 50 µM | GI50 [4]: > 50 µM

COc1ccc(Cn2nnc3c(C(N)=O)ncn3c2=O)c(OC)c1
GI50 [1]: > 50 µM | GI50 [2]: > 50 µM | GI50 [3]: > 50 µM | GI50 [4]: > 50 µM

Cc1cc(Cn2nnc3c(C(N)=O)ncn3c2=O)on1
GI50 [1]: > 50 µM | GI50 [2]: > 50 µM | GI50 [3]: > 50 µM | GI50 [4]: > 50 µM

NC(=O)c1ncn2c(=O)n(Cc3cccs3)nnc12
GI50 [1]: > 50 µM | GI50 [2]: > 50 µM | GI50 [3]: > 50 µM | GI50 [4]: > 50 µM

COc1ccc(Cn2nnc3c(C(N)=O)ncn3c2=O)cc1OC
GI50 [1]: > 50 µM | GI50 [2]: > 50 µM | GI50 [3]: > 50 µM | GI50 [4]: > 50 µM

Cn1nnc2c(C(N)=O)ncn2c1=O [TEMOZOLOMIDE]
GI50 [1]: 35.7 µM | GI50 [2]: 68 µM | GI50 [3]: 369 µM | GI50 [4]: 470 µM

COc1cccc(Cn2nnc3c(C(N)=O)ncn3c2=O)c1
GI50 [1]: > 50 µM | GI50 [2]: > 50 µM | GI50 [3]: > 50 µM | GI50 [4]: > 50 µM

COc1cc(Cn2nnc3c(C(N)=O)ncn3c2=O)cc(OC)c1OC
GI50 [1]: > 50 µM | GI50 [2]: > 50 µM | GI50 [3]: > 50 µM | GI50 [4]: > 50 µM

NC(=O)c1[nH]cnc1N
Drug metabolism [6]: Metabolite_Detected | Drug metabolism [5]: Metabolite_Detected

NC(=O)c1ncn2c(=O)n(Cc3ccsc3)nnc12
GI50 [1]: > 50 µM | GI50 [2]: > 50 µM | GI50 [3]: > 50 µM | GI50 [4]: > 50 µM
